Data on 2 compounds can be found in patent US7304083B2, “2-iminoimidazole derivatives (2)” (Eisai R&D Management Co., Ltd., priority 2001, dated 2007).

Structures can show the parent of a compound that is named as a salt.

Experiment [1] concerns Vascular smooth muscle cells (rSMC). As to the kind of experiment: Rat smooth muscle cell proliferation assay (thrombin-stimulated, MTT). The format is cell-based. The settings on record: 48 h; male SD rat aorta rSMC, thrombin 0.1 unit/ml, 2 days, MTT OD 590 nm; read-out: Rat SMC IC50. As to the method: [Rat Smooth Muscle Cell Proliferation Assay]
Vascular smooth muscle cells (rSMC) were isolated from male SD rat aorta by the explant method. DMEM medium (Sigma) containing 10% fetal bovine serum (GibcoBRL), streptomycin and penicillin was used as the proliferation medium, and subculture was carried out at 37° C. in the presence of 5% CO2. Culture was initiated after adding 100 μl of rSMC suspension in proliferation medium at a concentration of 1×10^4 cells/ml, to a 96-well plate. After 3 days, cells were rinsed twice with 100 μl of DMEM medium, the medium was exchanged with 100 μl of DMEM medium containing 0.1% albumin (starvation medium), and serum starvation was initiated. […]
Upon adding 20 μl of MTT (3-[4,5-dimethylthiazol-2-yl]-2,5-diphenyltetrazolium bromide) dissolved in DPBS to 7.5 mg/ml, incubation was continued for 4 hours. […] As an index of cell proliferation, the OD 590 nm was measured using a plate reader (EL340, BIO-TEK Instruments Inc.), and the control OD value (OD value in the absence of the test compound) minus the OD value in the presence of the test compound was divided by the control OD value minus the blank OD value (OD value without thrombin stimulation) to determine the inhibition ratio, from which the IC50 value was calculated.

The target of another experiment is T1, PAR1 thrombin receptor (Homo sapiens, UniProt P25116).
T1 construct: centrifuged at 40,000 g for 60 minutes to yield platelet membrane; from tissue; host or cells: platelet membrane prepared from platelet rich plasma of a healthy adult donor
T1 sequence (P25116 22-425): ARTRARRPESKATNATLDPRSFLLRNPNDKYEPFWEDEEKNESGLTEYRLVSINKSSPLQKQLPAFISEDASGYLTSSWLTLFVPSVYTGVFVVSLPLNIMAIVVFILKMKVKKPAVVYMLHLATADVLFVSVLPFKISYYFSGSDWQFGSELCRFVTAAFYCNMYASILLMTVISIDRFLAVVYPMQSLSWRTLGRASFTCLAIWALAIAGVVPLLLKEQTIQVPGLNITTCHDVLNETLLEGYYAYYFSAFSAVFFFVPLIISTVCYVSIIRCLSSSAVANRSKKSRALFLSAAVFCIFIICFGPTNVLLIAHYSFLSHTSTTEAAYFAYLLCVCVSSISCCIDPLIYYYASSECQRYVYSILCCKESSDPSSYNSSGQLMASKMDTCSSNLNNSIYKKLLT
Nature of the experiment: Receptor binding assay ([3H] high affinity TRAP, platelet membrane). Particulars: 25 nM [3H] high affinity TRAP, 37° C. for 1 hour, read-out: RBA IC50. Here is the method: Blood was sampled from a healthy adult who had taken no drugs for one week, and 3.8% citric acid (a ratio of 1:9 with respect to the blood) was added as an anticoagulant. The mixture was then centrifuged at 100 g for 10 minutes at room temperature to yield platelet rich plasma (PRP). The platelet precipitate obtained by centrifuging the PRP was homogenized with a Dounce homogenizer, and then centrifuged at 40,000 g for 60 minutes to yield platelet membrane. The platelet membrane was suspended in a solution prepared by adding DMSO (dimethyl sulfoxide) at 1% concentration to Buffer 1: a 50 mM Tris-HCl buffer containing 10 mM MgCl2 and 1 mM EGTA (ethylene glycol tetraacetic acid), and the suspension was stored at −80° C. Bovine albumin and DMSO were added to Buffer 1 at 0.1% and 20%, respectively, to make a preparation solution for the test compound. […] Next, 30 μl of liquid scintillator was added for measurement of the radioactivity of the plate using a Top Counter (Packard), the value of the radioactivity in the presence of the test compound minus non-specific binding portion was divided by the specific binding value (the value of the binding in the absence of the compound minus the non-specific binding portion) to determine the binding ratio, from which the IC50 value was calculated. […]

The test system of experiment [2] is platelet rich plasma (PRP). Nature of the experiment: Inhibitory effects on platelet aggregation using platelet rich plasma (thrombin-induced). The format is cell-based. Particulars: Homo sapiens, 0.1 h, aggregation initiated with thrombin 0.5–1.5 units/ml, area under aggregation curve over 6 minutes, read-out: Thr IC50. As to the method:
[Inhibitory Effects on Platelet Aggregation Using Platelet Rich Plasma]
Blood was sampled from a healthy adult who had taken no drugs for one week, and 3.8% citric acid (a ratio of 1:9 with respect to the blood) was added as an anticoagulant. The mixture was then centrifuged at 100 g for 10 minutes at room temperature to yield platelet rich plasma (PRP). The PRP-removed blood was further centrifuged at 1000 g for 10 minutes to yield platelet poor plasma (PPP). The number of platelet was counted using a multi-parameter automatic hemocyte counter (K4500, Sysmex), and the PRP was diluted to approximately 300,000/μl with the PPP. The platelet aggregation activity was determined in the following manner using an Aggregometer (MC Medical). […] After addition of thrombin, the aggregation reaction was examined for 6 minutes and the areas under the aggregation curves were compared to determine the inhibition ratio, from which the IC50 value was calculated.

A word on the IC50: it is the point on the concentration scale where inhibition reaches its midpoint. As to `CCC(CC)CCn1ccn(CC(=O)c2cc(C(C)(C)C)c(O)c(C(C)(C)C)c2)c1=N` [Example 1, 1-(3,5-Di-tert-butyl-4-hydroxy-phenyl)-2-[3-(3-ethyl-pentyl)-2-imino-2,3-dihydro-imidazol-1-yl]-ethanone hydrobromide], the figures for the IC50 (in experiment [1]; on PAR1 thrombin receptor; in experiment [2]) were 300 nM, 74 nM and 540 nM, respectively.

Turning to `CC(C)(C)c1cc(C(=O)Cn2ccn(Cc3ccccc3)c2=N)cc(C(C)(C)C)c1O` [Example 2, 2-(3-Benzyl-2-imino-2,3-dihydro-imidazol-1-yl)-1-(3,5-di-tert-butyl-4-hydroxy-phenyl)-ethanone hydrobromide], the IC50 amounted to 960 nM in experiment [1], 250 nM at PAR1 thrombin receptor and 2400 nM in experiment [2].
